# Experimental data published in patent publication US6989270B1, “Using polyamide nucleic acid oligomers to engender a biological response” (Mayo Foundation for Medical Education and Research, priority 1997, dated 2006).
# Tested on: neurotensin receptor-1 (NTR1)
# Assay: Hot plate test of NT-mediated anti-nociception in PNA-treated rats
# Type: in vivo, rat
# Experimental: Under an Institutional Animal Care and Use Committee approved protocol and under sterile conditions male Sprague-Dawley rats (180-200 g) were stereotaxically implanted with stainless steel guide cannulae (26 gauge) into the PAG under sodium pentobarbital anesthesia (50 mg/kg, i.p.) as described in detail elsewhere (Jensen T. S. and Yaksh T. L., Brain Res. 372:301-312 (1986) and Al-Rodhan N.R.F., Brain Res. 557:227-235 (1991)). The coordinates used for PAG cannulations are -5.6 mm posterior from bregma, 1.0 mm lateral from bregma, and 5.5 mm down from the dura. The guide cannula was pre-measured to be 5.5 mm (Plastics One, Roanoke, Va.) and the internal cannula was ordered to fit below the pedestal with a 2.0 mm projection. The guide cannula was then fixed to the skull using a stainless steel screw (⅛ inch) and cranioplastic cement. A stainless steel stilette was then placed in each guide to keep it patent and free of debris. Immediately after surgery, the animals were allowed to recover before returning them to an individual housing cage. All injections began 5-7 days after surgery.
# NTR1-PNA oligomers were injected, using a Hamilton digital syringe, into the PAG through the internal cannula, which extended 2 mm below the guide tip. The internal cannula was connected with a length of polyethylene tubing (PE-20) filled with saline solution. A small air bubble was introduced into the tubing to separate the saline from a solution containing 1.3 nmol of NTR1-PNA oligomers in artificial cerebral-spinal fluid (ACSF). The volume of the solution containing the NTR1-PNA oligomers was about 1.0 μl. The bubble was used to confirm the movement of this solution through the polyethylene tubing.
# NTR1-PNA oligomers were injected into the PAG of each rat three times, on days -4, -2, and 0. Controls included rats receiving no injections, rats receiving injections of ACSF only, and rats receiving PNA oligomers having sequence specificity for an unrelated polypeptide, the mu-1 morphine receptor (MU1R). The sequence of MU1R-PNA is 5′-[…]-3′ (SEQ ID NO: 2).
# The injection of NT in the PAG of rats produces a potent anti-nociceptive response as well as hypothermia. These responses are mediated by specific NT receptors and are not inhibited by naloxone. A very sensitive and reliable hot plate test was used to measure the anti-nociceptive effects of NT (Al-Rodhan N.R.F., Brain Res. 557:227-235 (1991)).
# NTR1-PNA, MU1R-PNA, and ACSF treated as well as untreated rats were analyzed using the hot plate test for NT. One day after the last treatment, each rat was analyzed as follows. Fifteen minutes prior to testing, a pre-drug latency measurement was made by placing the rat on a hot plate maintained at a temperature of 52±0.15° C. and recording the time elapsed before the rat licked either of its hindpaws. In addition, the temperature of the rat was taken using a thermister probe inserted 3 cm in the rectum to determine the pre-drug body temperature (BT). After making these measurement, an appropriate dose of NT (18 nmol) at a volume of about 0.5 ul was administered into the PAG as described above. Thirty minutes after administering NT, the rat was again placed on a hot plate maintained at a temperature of 52±0.15° C. and the latency between the time the rat was placed on the surface and the time it licked either of its hindpaws was measured. […] Hot plate tests were scored as the percent of maximum possible effect (% MPE) and calculated using the following equation: % MPE=[(post-drug latency−pre-drug latency)/(cut-off−pre-drug latency)]×100; where the cut-off is 30 seconds. […] This average for untreated control rats was used to set the baseline MPE value to 100. Immediately after the 30 second hot plate test, BT was taken to measure NT-induced hypothermia using a thermister probe inserted 3 cm in the rectum. […] All test situations were compared to these baseline values derived from NT responsive untreated controls. […]
substance,measurement,setting,value
"NTR1-PNA: 12-mer antisense PNA oligomer to rat NTR1 coding region, 5′-CATTGCTCAAAC-3′ (SEQ ID NO: 1) (all peptide nucleic acid (PNA))",anti-nociception score (hot plate) after NT,"10 mg/kg intraperitoneally, NT 18 nmol into PAG 24 hours later",25 % MPE
same,time until which NT-mediated anti-nociception remained significantly reduced,"PNA injected into PAG on days -4, -2, 0",day five
same,Responsiveness: NT (anti-nociception and hypothermia),"intraperitoneal administration, Table VI",lost
same,time for responses to NT to return to baseline levels after PNA injection,"single injection 10 mg/kg, tested every 24 hours with NT",≤ 48 h
